The values that follow come from US20230210994A1, “CELL-PENETRATING CONJUGATE SYSTEMS” (Danmarks Tekniske Universitet, priority 2019, published 2023).

Series [1] has as its system CT-26 cells. In words: Ethidium-homodimer internalization in CT-26 cells, fluorescent confocal microscopy. It counts as cell-based, mouse. Particulars: EtDi alone, without conjugate. As to the method:
CT-26 cells in culture were co-incubated with the conjugate system, 4-hydroxybutyl L-tryptophanate, (1 mg/ml) and Etidium-homodimer (2 μl/ml) for 1 hour and observed under fluorescent confocal microscope. Working ratio was set as 1:3 and two reaction sets comprising of higher (80 μl) loading and standard loading (40 μl ) were performed. Emission bandwidth was set as 490-550nm and 590-680 nm.

The subject of series [2] is CT26 cells. As to the kind of experiment: Uptake of Oxaliplatin by CT26 cells measured by ICP-MS. The series is classed as cell-based, mouse. The conditions noted are these: 30 μM OxPt alone, peaking at 4 h. How it is done:
CT26 cells were seeded in 24-well plate (100.000 cells/mL/well) exposed to Oxaliplatin (Ox-Pt, 10 μM and 30 μM) with/and without conjugate the molar ratio of 1:1, 1:3 and 3:1 respectively. After 1, 4, 24 hours of incubation, media was discarded and the cells were washed with PBS twice, once with heparin (to remove anything associated externally with the cell membrane) and once more with PBS. Then the cells were detached from the wells using trypsin and cells were counted. Finally, each sample was diluted in HCl acid and further diluted in 2% HCl with (0.5 ppb Ir), then Pt content was measured in the ICP-MS.

Series [3] concerns CT-26 cells. As to the kind of experiment: Internalization of Paclitaxel (PTX) in CT-26 cells measured by flow cytometry. The series is classed as cell-based, mouse. How it is done: There is a remarkable increment in the percentage of cells containing PTX when co-administered with the conjugate, especially after 24 hours incubation. (c) depicts the amount of PTX internalization expressed as mean fluorescence intensity (MFI).
On the technique in general: In flow cytometry, cells or beads pass a laser one at a time.

The conditions of series [4]: cited from earlier work.
The test system of series [5] is CT26 colon cancer cells. As to the kind of experiment: Internalization of INS-FITC in CT26 cells, flow cytometry and fluorescent imaging. It counts as cell-based, mouse. Particulars: INS-FITC alone. As to the method:
CT26 colon cancer cells were seeded in 24-well plates at 100.000 cells/well/mL. After 24 hours, cells were treated with INS-FITC at 10 μM or 30 μM concentration either alone or in combination with the conjugate 4-hydroxybutyl L-tryptophanate in three different molar ratios (1:1, 1:3 or 3:1). Treatments were co-incubated with the CT26 cells for 1 h, 4 h or 24 h. Before observation, cells were washed several times with PBS, and with heparin, to ensure removal of compounds that might remain softly bound to cell membrane and not internalized. Then the washed cells were detached from the wells using trypsin, centrifuged and re-suspended in PBS for analysis by flow cytometry. In flow the cells were gated as singlets (single cell events) and then the fluorescence was recorded for each event in the specific FL channel were the compound has its emission max (INS-FITC: FL1 (525+/−40).

In the case of `Nc1ccc2c(c1)c(-c1ccccc1)[n+](CCCNCCNCCC[n+]1c(-c3ccccc3)c3cc(N)ccc3c3ccc(N)cc31)c1cc(N)ccc21` [EtDi, Ethidium-homodimer, reference compound], in series [1], the “cell penetration of EtDi” value is recorded as “cannot penetrate into the cell”.

For the compound `O=C1[O][Pt]2([NH][C@@H]3CCCC[C@H]3[NH]2)[O]C1=O` [OxPt, Oxaliplatin, reference compound], the “OxPt uptake over time” value in series [2] was “no apparent increase”.

For `CC(=O)O[C@H]1C(=O)[C@@]2(C)[C@H]([C@H](OC(=O)c3ccccc3)[C@]3(O)C[C@H](OC(=O)[C@H](O)[C@@H](NC(=O)c4ccccc4)c4ccccc4)C(C)=C1C3(C)C)[C@]1(OC(C)=O)CO[C@@H]1C[C@@H]2O` [PTX, Paclitaxel, reference compound], in series [3] (PTX 10 μM alone), the “% cells uptake (1 h), CT-26 cells with PTX internalized” value was determined as 2.3%; the “% cells uptake (4 h), CT-26 cells with PTX internalized” value was 2.4%; the “% cells with uptake (24 h), CT-26 cells with PTX internalized” value is listed as 7.7%. Moreover, in series [3] (PTX 30 μM alone), the “% cells uptake (1 h), CT-26 cells with PTX internalized” value came to 2.2%; the “% cells uptake (4 h), CT-26 cells with PTX internalized” value is 3.0%; the “% cells with uptake (24 h), CT-26 cells with PTX internalized” value is listed as 7.6%.

On to `N[C@@H](Cc1c[nH]c2ccccc12)C(=O)O` [tryptophan], for which, in series [4], the “pKa of deprotonated carboxylic acid (—COO−)” value is 2.38 and the “pKa of protonated amino group (—NH3+)” value is reported as 9.39.

With “INS-FITC: fluorescently labelled insulin, insulin conjugated with FITC [reference compound]”, in series [5], the “internalization in cells (share of cells)” value is listed as 100%.
